The values that follow come from publication PMC4809498, “Artonin E Induces Apoptosis via Mitochondrial Dysregulation in SKOV-3 Ovarian Cancer Cells” (PLoS ONE, 2016).

The subject of one test is SKOV-3 cells. Description: AO-PI double staining. In kind it is cell-based, human. As to conditions: SKOV-3, 8 μg/mL, 24, 48, 72 h. Here is the method:
The effect of artonin E in inducing cell death in SKOV-3 cells was determined using acridine orange (AO) and propidium iodide (PI) double staining. SKOV-3 cells were plated at 5×10^5cells in a T75cm^2 flask and incubated overnight to allow attachment. The cells were then exposed to 8 μg/mL of artonin E for 24, 48, and 72 h. After incubation, the treated cells were washed with PBS, and then trypsinized and centrifuged at 1,500 rpm for 5 min. The cells were then resuspended in cold PBS and centrifuged twice to obtain fresh clean pellets. The fresh pellets were mixed with an equal volume of fluorescent dye staining solution (1:1), comprising 10μg/mL AO and 10 μg/mL PI (dissolved in PBS). The freshly stained cell suspension was dropped onto a glass slide and observed under a UV–fluorescence microscope (Leica attached with Q-Flora Software) within 30 min, prior to fading of the fluorescence.

The next test has as its system H460 cells. Further details: method as in PMID 23225436. As to conditions: dose-dependent manner; cited from earlier work.

On to `CC(C)=CCc1c(-c2cc(O)c(O)cc2O)oc2c3c(cc(O)c2c1=O)OC(C)(C)C=C3` [Artonin E, artonin E], for which the “induction of apoptosis (AO-PI scoring) vs untreated cells” value in the test with SKOV-3 cells is “statistically significant (p<0.05) difference”. Also, the “anoikis (detachment-induced apoptosis) of H460 cells” value in the test on H460 cells is “enhances anoikis”.
